Experimental data from ChEMBL document CHEMBL4330066, “Carbohydrate-naphthalene diimide conjugates as potential antiparasitic drugs: Synthesis, evaluation and structure-activity studies” (Eur J Med Chem, 2019).
The source made the active and inactive calls. No cut-off for these calls is given here.

Assays:
[1] = Selectivity index, ratio of TC50 for human THP1 cells to IC50 for Leishmania major MHOM/IL/80/Friedlin amastigotes; type: toxicity; conditions: THP1 cells versus Leishmania major amastigotes, read-out: Selectivity Index
MRC5 = assay: Cytotoxicity against human MRC5 cells assessed as reduction in cell viability after 48 hrs by MTT assay; type: cell-based; conditions: MRC5, 48 h
Trypanosoma brucei [2] = assay: Stabilization of Trypanosoma brucei EBR1 G-quadruplex DNA up to 30 x 10^-6 M by CD titration assay
[3] = Drug localization in kinetoplast of Trypanosoma brucei at 5 x 10^-6 M after 4 hrs by DAPI staining-based fluorescence confocal microscopy method; type: ADME, subcellular; conditions: 5 µM
Leishmania major [4] = assay: Leishmaniacidal activity against Leishmania major MHOM/IL/80/Friedlin amastigotes infected in human THP1 cells after 72 hrs by luciferase luminescence assay; type: functional, organism-based; conditions: THP-1, 72 h
[5] = Cytotoxicity against human THP1 cells; type: cell-based; conditions: THP-1 cells, read-out: TC50 (the source's name)
Trypanosoma brucei [6] = assay: Stabilization of 5'-FAM /3'-Tamra labelled Trypanosoma brucei F21T G-quadruplex DNA in presence of 3 x […] M dsDNA competitior by FRET melting assay
[7] = Selectivity index, ratio of IC50 for human MRC5 cells to IC50 for Trypanosoma brucei Lister 427, antigenic type MiTat 1.2, clone 221a; type: toxicity; conditions: MRC5 cells versus Trypanosoma brucei Lister 427, read-out: Ratio IC50
Trypanosoma brucei [8] = assay: Binding affinity to Trypanosoma brucei EBR1 G-quadruplex DNA assessed as association constant by fluorescence titration assay
Trypanosoma brucei [9] = assay: Stabilization of 5'-FAM /3'-Tamra labelled Trypanosoma brucei EBR1-FT G-quadruplex DNA in presence of 1 x 10^-5 M dsDNA competitior by FRET melting assay relative to control
Leishmania major [10] = assay: Leishmaniacidal activity against Leishmania major MHOM/IL/80/Friedlin promastigotes after 72 hrs by MTT assay; type: functional, organism-based
Trypanosoma brucei [11] = assay: Stabilization of 5'-FAM /3'-Tamra labelled Trypanosoma brucei F21T G-quadruplex DNA at 2 x 10^-6 M by FRET melting assay
Trypanosoma brucei [12] = assay: Trypanocidal activity against Trypanosoma brucei Lister 427, antigenic type MiTat 1.2, clone 221a after 72 hrs by alamarBlue assay; type: functional, organism-based; conditions: Lister 427, 72 h
Trypanosoma brucei [13] = assay: Stabilization of 5'-FAM /3'-Tamra labelled Trypanosoma brucei F21T G-quadruplex DNA in presence of 1 x 10^-5 M dsDNA competitior by FRET melting assay
Quadruplex DNA [14] = assay: Stabilization of 22AG telomeric G-quadruplex DNA (unknown origin) assessed as red shift at 8 uM by fluorescence absorption emisssion spectroscopy method; type: nucleic-acid assay
[15] = Drug localization in nucleus of Trypanosoma brucei at 5 x 10^-6 M after 4 hrs by DAPI staining-based fluorescence confocal microscopy method; type: ADME, subcellular; conditions: 5 µM
Quadruplex DNA [16] = assay: Binding affinity to 22AG telomeric G-quadruplex DNA (unknown origin) assessed as association constant by fluorescence titration assay; type: nucleic-acid assay
Trypanosoma brucei [17] = assay: Stabilization of 5'-FAM /3'-Tamra labelled Trypanosoma brucei EBR1-FT G-quadruplex DNA at 2 x 10^-6 M by FRET melting assay
Trypanosoma brucei [18] = assay: Stabilization of 5'-FAM /3'-Tamra labelled Trypanosoma brucei EBR1-FT G-quadruplex DNA assessed as impeding of completing melting of DNA at 2 x 10^-6 M by FRET melting assay
Trypanosoma brucei [19] = assay: Stabilization of 5'-FAM /3'-Tamra labelled Trypanosoma brucei F21T G-quadruplex DNA assessed as change in melting temperature at 5 x 10^-7 M by FRET melting assay
Trypanosoma brucei [20] = assay: Stabilization of 5'-FAM /3'-Tamra labelled Trypanosoma brucei EBR1-FT G-quadruplex DNA assessed as change in melting temperature at 0.5 x 10^-6 M by FRET melting assay
Erythrocyte = assay: Hemolytic activity in mouse RBC after 1 hr; type: ADME, cell-based
Trypanosoma brucei [21] = assay: Stabilization of 5'-FAM /3'-Tamra labelled Trypanosoma brucei EBR1-FT G-quadruplex DNA assessed as change in melting temperature at 5 x 10^-7 M by FRET melting assay
Quadruplex DNA [22] = assay: Stabilization of 22AG telomeric G-quadruplex DNA (unknown origin) assessed as reduction in emission at 8 uM by fluorescence absorption emisssion spectroscopy method relative to control; type: nucleic-acid assay; parameters: scale not given: the % may be the effect or the level left
[23] = Drug uptake in Trypanosoma brucei assessed as reduction in intracellular fluorescence at 5 x 10^-6 M at 4 degreeC incubated for 90 mins by flow cytometric analysis relative to drug uptake at 37 degC; type: ADME, cell-based; conditions: 1.5 h, 5 µM
Quadruplex DNA [24] = assay: Stabilization of 22AG telomeric G-quadruplex DNA (unknown origin) assessed as reduction in emission at 8 uM by fluorescence absorption emisssion spectroscopy method; type: nucleic-acid assay; parameters: scale not given: the % may be the effect or the level left
[25] = Drug uptake in Trypanosoma brucei at 5 x 10^-6 M at 37 degC incubated for 90 mins by flow cytometric analysis; type: ADME; conditions: 1.5 h, 5 µM
[26] = Drug uptake in Trypanosoma brucei assessed as reduction in intracellular fluorescence at 5 x 10^-6 M at 4 to 37 degreeC by flow cytometric analysis; type: ADME, cell-based; conditions: 5 µM, TDE = time-dependent effect

Row | Compound | selectivity ratio [1] | IC50 (MRC5) [µM] | Activity (Trypanosoma brucei [2]) | Drug uptake [3] | IC50 (Leishmania major [4]) [µM] | CC50 [5] [µM] | Activity (Trypanosoma brucei [6]) | selectivity ratio [7] | Ka (Trypanosoma brucei [8]) | Activity (Trypanosoma brucei [9]) | IC50 (Leishmania major [10]) [µM] | Activity (Trypanosoma brucei [11]) | IC50 (Trypanosoma brucei [12]) [µM] | Activity (Trypanosoma brucei [13]) | Activity (Quadruplex DNA [14]) | Drug uptake [15] | Ka (Quadruplex DNA [16]) | Activity (Trypanosoma brucei [17]) | other results
1 | CN(C)CCCN1C(=O)c2ccc3c4c(c(NCCCn5cc(COCCOCCOCCO[C@@H]6O[C@H](CO)[C@@H](O)[C@H](O)[C@H]6O)nn5)cc(c24)C1=O)C(=O)N(CCCN(C)C)C3=O | 3.9 | 0.73 | Active | Active | 0.48 | 1.86 | inactive | 1.6 | 6.9 ×10⁵ /M | Active | 0.48 | Active | 0.44 | Active | Active | Active | 4.8 ×10⁵ /M | Active | 
2 | CN(C)CCCc1cc2c3c(c(NCCCn4cc(CCO[C@@H]5O[C@H](CO)[C@@H](O)[C@H](O)[C@H]5O)nn4)cc4c3c1C(=O)N(CCCN(C)C)C4=O)C(=O)N(CCCN(C)C)C2=O |  | 7.25 | Active | Active |  |  | inactive | 30.2 | 1 ×10⁷ /M | inactive | 9.77 | inactive | 0.24 | Active |  | Active | 4.4 ×10⁶ /M |  | Activity (Trypanosoma brucei [18]): Active; ΔTm (Trypanosoma brucei [19]): 22.1 °C; ΔTm (Trypanosoma brucei [20]): 24 °C; Activity (Erythrocyte): Non-Toxic; ΔTm (Trypanosoma brucei [21]): 11.5 °C; Activity (Quadruplex DNA [22]): 40%
3 | CN(C)CCCN1C(=O)c2ccc3c4c(c(NCCCn5cc(CCO[C@@H]6O[C@H](CO)[C@@H](O)[C@H](O)[C@H]6O)nn5)cc(c24)C1=O)C(=O)N(CCCN(C)C)C3=O | 3 | 0.45 | Active | Active | 0.72 | 2.18 | inactive | 7.5 | 1.2 ×10⁶ /M | Active | 0.07 | Active | 0.06 | Active | 10 nm | Active | 9.2 ×10⁵ /M | Active | Drug uptake [23]: 36%; Activity (Quadruplex DNA [24]): 10%; Activity (Erythrocyte): Non-Toxic; Drug uptake [25]: Active; Drug uptake [26]: Tde
4 | CN(C)CCCN1C(=O)c2ccc3c4c(c(NCCCn5cc(COCCOCCOCCO[C@@H]6O[C@H](CO)[C@@H](O[C@H]7O[C@H](CO)[C@@H](O)[C@H](O)[C@H]7O)[C@H](O)[C@H]6O)nn5)cc(c24)C1=O)C(=O)N(CCCN(C)C)C3=O | > 2.2 | 3.3 |  |  | 4.52 | > 10 |  | 82.5 |  |  | 0.16 |  | 0.04 |  |  |  |  |  | 
5 | CN(C)CCCN1C(=O)c2ccc3c4c(c(NCCCn5cc(COCCOCCOCCO[C@@H]6O[C@H](CO)[C@@H](O[C@@H]7O[C@H](CO)[C@H](O)[C@H](O)[C@H]7O)[C@H](O)[C@H]6O)nn5)cc(c24)C1=O)C(=O)N(CCCN(C)C)C3=O | 10.8 | 0.24 | Active | Active | 0.53 | 5.71 | inactive | 6 | 1.1 ×10⁶ /M | Active | 0.17 | Active | 0.04 | Active | Active | Active | 8.4 ×10⁵ /M | Active | 
6 | CN(C)CCCN1C(=O)c2ccc3c4c(c(NCCCn5cc(CO[C@@H]6O[C@H](CO)[C@@H](O)[C@H](O)[C@H]6O)nn5)cc(c24)C1=O)C(=O)N(CCCN(C)C)C3=O | 2.2 | 0.26 |  |  | 0.66 | 1.44 |  | 1.2 |  |  | 0.43 |  | 0.22 |  |  |  |  |  | 
7 | CN(C)CCCN1C(=O)c2ccc3c4c(c(NCCCn5cc(CCO[C@@H]6O[C@H](CO)[C@@H](O[C@@H]7O[C@H](CO)[C@H](O)[C@H](O)[C@H]7O)[C@H](O)[C@H]6O)nn5)cc(c24)C1=O)C(=O)N(CCCN(C)C)C3=O | > 2.1 | 1.17 |  |  | 4.71 | > 10 |  | 3.5 |  |  | 1.93 |  | 0.33 |  |  |  |  |  | 
